Reference: patent US8895261B2, “Use of fluorescent saccharide-based derivative” (I-Shou University, priority 2012, dated 2014)

Test system: fibroblast 3T3 cells
Assay: Cellular uptake of fluorescent saccharide-based derivative in fibroblast 3T3 cells (fluorescence microscopy)
Format: cell-based
Details: 100 μl of 0.5 mg/ml added to 3T3 cells, reacting overnight; FIG. 2G
Procedure: 1. Cultivate the fibroblast 3T3 cells in a DMEM medium (the DMEM medium contains 10% fetal bovine serum, 5 mM pyruvic acid, and antibiotics). The cells are cultivated in an incubator containing 5% CO2.
2. When the cells grow and occupy 80% of the bottom of the culture flask through cell division, suck out the culture medium and wash with 1×PBS, then add 0.05% trypsin to react for 1 minute in order to separate the cells, and add 5 ml culture medium, then centrifuge with […] for 10 minutes.
3. After centrifugation, remove the supernatant, then add 5 ml of culture medium, and evenly mix the cells and the culture medium. Take 30 μl of the cell solution and mix with 270 μl of trypan blue, then take 100 μl and place on a cytometer, and count the cell number using erythrocytomertry.
4. After counting the cells, adjust the cell number to 1×10^4 cells/ml, and take 1 ml of the cells and plant into a 24-well culture plate containing a glass slide, then place the cells in a cell incubator at 37° C. and 5% CO2. Incubate for 1 day, and then add 100 μl of 0.5 mg/ml glucosylglycine. After reacting overnight, wash twice with 1×PBS (10 minutes/turn).
5. Add 4% paraformaldehyde to the culture plate, and place in room temperature for twenty minutes to fix the cells, then remove the paraformaldehyde and wash 3 times with 1×PBS (10 minutes/turn).
6. […]

O=C(O)CNC1O[C@H](CO)[C@@H](O)[C@H](O)[C@H]1O (stereo partly drawn) [glucosylglycine, D-glucosylglycine]
cell uptake (cells emit fluorescence after being fed): uptakable by cells
